Experimental findings from ChEMBL document CHEMBL4038307, “Influence of a Basic Side Chain on the Properties of Hypoxia-Selective Nitro Analogues of the Duocarmycins: Demonstration of Substantial Anticancer Activity in Combination with Irradiation or Chemotherapy” (J Med Chem, 2017) are described below.

Calls of active or inactive are those of the source. No cut-off for these calls is given here.

Test [1] concerns HT-29. Description: Cytotoxicity against human HT-29 cells incubated for 4 hrs under hypoxic condition measured after 5 days by SRB assay. Type of test: functional, cell-based.
Test [2] has as its system HT-29. Description: Cytotoxicity against human HT-29 cells incubated for 4 hrs under oxic condition measured after 5 days by SRB assay. Type of test: functional, cell-based. (Sulforhodamine B stains cellular protein and so reports cell mass.)
In test [3] the test system is HT-29. As to the kind of experiment: Ratio of IC50 for human HT-29 cells under oxic condition to IC50 for human HT-29 cells under hypoxic condition. The test is classed as functional.
Test [4] deals with SiHa. Description: Ratio of IC50 for human SiHa cells under oxic condition to IC50 for human SiHa cells under hypoxic condition. The test is classed as functional.
Test [5] has as its system SiHa. As to the kind of experiment: Cytotoxicity against human SiHa cells incubated for 4 hrs under hypoxic condition measured after 5 days by SRB assay. Type of test: functional, cell-based.
The subject of test [6] is SiHa. As to the kind of experiment: Cytotoxicity against human SiHa cells incubated for 4 hrs under oxic condition measured after 5 days by SRB assay. Type of test: functional, cell-based.
In test [7] the test system is SiHa. As to the kind of experiment: Antitumor activity against human SiHa cells xenografted in CD-1 Foxn1 nude mouse assessed as log reduction in colony forming cells under hypoxic condition at 42 umol/kg, iv treated 5 mins after gamma irradiation measured after 18 hrs by excision assay. Type of test: functional.
In test [8] the test system is NCI-H460. Description: Antitumor activity against human H460 cells xenografted in CD-1 Foxn1 nude mouse assessed as reduction in colony forming cells under hypoxic condition at 75 umol/kg, iv treated 5 mins after gamma irradiation measured after 18 hrs by excision assay. The test is classed as functional, organism-based.
For a further test, the system named is NCI-H1299. Description: Antitumor activity against human H1299 cells xenografted in CD-1 Foxn1 nude mouse assessed as reduction in colony forming cells at 75 umol/kg, iv treated 5 mins after gamma irradiation measured after 18 hrs by excision assay. The test is classed as functional, organism-based.
Another test has as its system HCT-116. As to the kind of experiment: Antitumor activity against human HCT116 cells xenografted in CD-1 Foxn1 nude mouse assessed as reduction in colony forming cells at 56 umol/kg, iv treated 5 mins after gamma irradiation measured after 18 hrs by excision assay. The test is classed as functional, organism-based. In general terms: In xenograft studies the graft and the host belong to different species.

The subject of another test is CWR22R. Description: Antitumor activity against human 22Rv1 cells xenografted in CD-1 Foxn1 nude mouse assessed as reduction in colony forming cells under hypoxic condition at 30 umol/kg, iv treated 5 mins after gamma irradiation measured after 18 hrs by excision assay. Type of test: functional, organism-based.
In test [9] the test system is NCI-H460. As to the kind of experiment: Antitumor activity against human H460 cells xenografted in CD-1 Foxn1 nude mouse assessed as reduction in colony forming cells under hypoxic condition at 13.3 umol/kg, iv treated 5 mins after gamma irradiation measured after 18 hrs by excision assay. The test is classed as functional, organism-based.

Consider `CN(C)Cc1ccc2[nH]c(C(=O)N3CC(CCl)c4c3cc(N)c3cc(S(=O)(=O)NCCO)ccc43)cc2c1` (stereo unspecified), for which the outcome in the test on HT-29 [1], in the test with HT-29 [2], with SiHa [5] and in the test with SiHa [6] was Active. Further, the “Ratio IC50” value with HT-29 [3] and with SiHa [4] was 1 in each case.
Consider `O=C(NCCOP(=O)(O)O)c1ccc2c3c(cc([N+](=O)[O-])c2c1)N(C(=O)c1cc2cc(OCCN4CCOCC4)ccc2[nH]1)CC3CCl` (stereo unspecified), for which the Activity in the test with SiHa [7] was more than 1.
With `CN(C)CCC(=O)Nc1ccc2[nH]c(C(=O)N3CC(CCl)c4c3cc(N)c3cc(S(=O)(=O)NCCO)ccc43)cc2c1` (stereo unspecified), the outcome with HT-29 [1], with HT-29 [2], in the test with SiHa [5] and with SiHa [6] was Active. The “Ratio IC50” value in the test on HT-29 [3] and in the test on SiHa [4] was 1 throughout.
Turning to `O=C(c1cc2cc(OCCCN3CCOCC3)ccc2[nH]1)N1CC(CCl)c2c1cc([N+](=O)[O-])c1cc(S(=O)(=O)NCCOP(=O)(O)O)ccc21` (stereo unspecified), in the test on SiHa [7], the Activity is on record as more than 1. Moreover, the result in the test on NCI-H460 [8], in the test on NCI-H1299, in the test with HCT-116 and with CWR22R was Active.
As to `CN(C)CCCOc1ccc2[nH]c(C(=O)N3CC(CCl)c4c3cc([N+](=O)[O-])c3cc(S(=O)(=O)NCCO)ccc43)cc2c1` (stereo unspecified), the “Ratio IC50” value with HT-29 [3] and in the test with SiHa [4] was 27 - 68 in each case.
As to `O=C(/C=C/c1ccc(OCCCN2CCOCC2)cc1)N1CC(CCl)c2c1cc([N+](=O)[O-])c1cc(S(=O)(=O)NCCOP(=O)(O)O)ccc21` (stereo unspecified), the outcome in the test with SiHa [7] and in the test with NCI-H460 [8] was Active.
For the compound `Nc1cc2c(c3ccc(S(=O)(=O)NCCO)cc13)C(CCl)CN2C(=O)CCN1CCOCC1` (stereo unspecified), the result with HT-29 [1], with HT-29 [2], with SiHa [5] and in the test with SiHa [6] was Active. The “Ratio IC50” value in the test with HT-29 [3] and with SiHa [4] was 1 each time.
With `CN(C)CCOc1ccc2[nH]c(C(=O)N3CC(CCl)c4c3cc(N)c3cc(S(=O)(=O)NCCO)ccc43)cc2c1` (stereo unspecified), the result in the test with HT-29 [1], with HT-29 [2], with SiHa [5] and in the test on SiHa [6] was Active. Also, the “Ratio IC50” value with HT-29 [3] and in the test with SiHa [4] was 1 throughout.
As to `CN(C)CC(=O)Nc1ccc2[nH]c(C(=O)N3CC(CCl)c4c3cc(N)c3cc(S(=O)(=O)NCCO)ccc43)cc2c1` (stereo unspecified), the outcome in the test with HT-29 [1], with HT-29 [2], in the test on SiHa [5] and in the test with SiHa [6] was Active. Also, the “Ratio IC50” value in the test on HT-29 [3] and in the test with SiHa [4] was 1 each time.
Consider `O=C(c1cc2cc(OCCCN3CCOCC3)ccc2[nH]1)N1CC(CCl)c2c1cc([N+](=O)[O-])c1cc(S(=O)(=O)NCCO)ccc21` (stereo unspecified), for which the result in the test with HT-29 [1] and with SiHa [5] was inactive.
In the case of `CN(C)CCCOc1ccc2[nH]c(C(=O)N3CC(CCl)c4c3cc([N+](=O)[O-])c3cc(S(=O)(=O)NCCOP(=O)(O)O)ccc43)cc2c1` (stereo unspecified), the outcome in the test on NCI-H1299, in the test with HCT-116 and in the test on CWR22R was Active.
`Nc1cc2c(c3ccc(S(=O)(=O)NCCO)cc13)C(CCl)CN2C(=O)c1cc2cc(OCCCN3CCOCC3)ccc2[nH]1` (stereo unspecified): the result in the test with HT-29 [1], in the test with HT-29 [2], in the test with SiHa [5] and in the test on SiHa [6] was Active. The “Ratio IC50” value in the test with HT-29 [3] and in the test on SiHa [4] was 1 each time.
Consider `CN(C)Cc1ccc2[nH]c(C(=O)N3CC(CCl)c4c3cc([N+](=O)[O-])c3cc(S(=O)(=O)NCCOP(=O)(O)O)ccc43)cc2c1` (stereo unspecified), for which, in the test on SiHa [7], the outcome was Active. Also, in the test with NCI-H460 [8], the result was inactive.
For the compound `O=C(NCCOP(=O)(O)O)c1ccc2c3c(cc([N+](=O)[O-])c2c1)N(C(=O)/C=C/c1ccc(OCCN2CCOCC2)cc1)CC3CCl` (stereo unspecified), the result with SiHa [7] and in the test on NCI-H460 [8] was Active.
Regarding `CN(C)CCOc1ccc2[nH]c(C(=O)N3CC(CCl)c4c3cc([N+](=O)[O-])c3cc(S(=O)(=O)NCCO)ccc43)cc2c1` (stereo unspecified), the result in the test with HT-29 [1] and in the test on HT-29 [2] was Active.
As for `CN(C)c1ccc2[nH]c(C(=O)N3CC(CCl)c4c3cc(N)c3cc(S(=O)(=O)NCCO)ccc43)cc2c1` (stereo unspecified), the result with HT-29 [1], in the test on HT-29 [2], in the test on SiHa [5] and in the test on SiHa [6] was Active. The “Ratio IC50” value with HT-29 [3] and in the test with SiHa [4] was 1 throughout.
For the compound `O=C(c1ccc(OCCN2CCOCC2)cc1)N1CC(CCl)c2c1cc([N+](=O)[O-])c1cc(S(=O)(=O)NCCOP(=O)(O)O)ccc21` (stereo unspecified), the result in the test with SiHa [7] was Active. In the test with NCI-H460 [9], the outcome was inactive.
Consider `O=C(c1cc2cc(OCCN3CCOCC3)ccc2[nH]1)N1CC(CCl)c2c1cc([N+](=O)[O-])c1cc(S(=O)(=O)NCCO)ccc21` (stereo unspecified), for which the outcome in the test on HT-29 [1] and in the test on SiHa [5] was inactive.
Consider `Nc1cc2c(c3ccc(S(=O)(=O)NCCO)cc13)C(CCl)CN2C(=O)c1ccc(OCCN2CCOCC2)cc1` (stereo unspecified), for which the outcome with HT-29 [1], with HT-29 [2], in the test on SiHa [5] and in the test with SiHa [6] was Active. Also, the “Ratio IC50” value in the test with HT-29 [3] and in the test on SiHa [4] was 1 throughout.
Consider `CCN(CC)CCOc1ccc2[nH]c(C(=O)N3CC(CCl)c4c3cc([N+](=O)[O-])c3cc(S(=O)(=O)NCCO)ccc43)cc2c1` (stereo unspecified), for which the “Ratio IC50” value with HT-29 [3] and with SiHa [4] was 27 - 68 throughout.
For the compound `CN(C)CCOc1ccc2[nH]c(C(=O)N3CC(CCl)c4c3cc([N+](=O)[O-])c3cc(C(=O)NCCOP(=O)(O)O)ccc43)cc2c1` (stereo unspecified), the result with SiHa [7], with NCI-H1299, with HCT-116 and in the test with CWR22R was Active.
With `COc1cc2cc(C(=O)N3CC(CCl)c4c3cc(N)c3cc(S(=O)(=O)NCCO)ccc43)[nH]c2c(OC)c1OC` (stereo unspecified), the result in the test on HT-29 [1], with HT-29 [2], in the test on SiHa [5] and in the test on SiHa [6] was Active. Besides, the “Ratio IC50” value with HT-29 [3] and in the test on SiHa [4] was 1 throughout.
Turning to `Nc1cc2c(c3ccc(S(=O)(=O)NCCO)cc13)C(CCl)CN2C(=O)c1cc2cc(OCCN3CCOCC3)ccc2[nH]1` (stereo unspecified), the result in the test on HT-29 [1], in the test with HT-29 [2], in the test with SiHa [5] and in the test on SiHa [6] was Active. Besides, the “Ratio IC50” value in the test with HT-29 [3] and in the test on SiHa [4] was 1 in each case.
Take `O=C(CCN1CCOCC1)N1CC(CCl)c2c1cc([N+](=O)[O-])c1cc(S(=O)(=O)NCCOP(=O)(O)O)ccc21` (stereo unspecified): in the test on SiHa [7], the outcome was Active. The outcome with NCI-H460 [8] was inactive.
Take `CN(C)CCOc1ccc2[nH]c(C(=O)N3CC(CCl)c4c3cc([N+](=O)[O-])c3cc(C(=O)NCCO)ccc43)cc2c1` (stereo unspecified): the result with HT-29 [1] and in the test on HT-29 [2] was Active.
On to `CN(C)CCCOc1ccc2[nH]c(C(=O)N3CC(CCl)c4c3cc(N)c3cc(S(=O)(=O)NCCO)ccc43)cc2c1` (stereo unspecified), for which the result in the test on HT-29 [1], with HT-29 [2], with SiHa [5] and with SiHa [6] was Active. Besides, the “Ratio IC50” value in the test with HT-29 [3] and in the test with SiHa [4] was 1 each time.
As for `CN(C)Cc1ccc2[nH]c(C(=O)N3CC(CCl)c4c3cc([N+](=O)[O-])c3cc(S(=O)(=O)NCCO)ccc43)cc2c1` (stereo unspecified), the “Ratio IC50” value with HT-29 [3] and with SiHa [4] was 27 - 68 in each case.
For the compound `CCN(CC)CCOc1ccc2[nH]c(C(=O)N3CC(CCl)c4c3cc(N)c3cc(S(=O)(=O)NCCO)ccc43)cc2c1` (stereo unspecified), the result in the test on HT-29 [1], with HT-29 [2], in the test with SiHa [5] and in the test with SiHa [6] was Active. The “Ratio IC50” value with HT-29 [3] and in the test with SiHa [4] was 1 each time.
Turning to `Nc1cc2c(c3ccc(S(=O)(=O)NCCO)cc13)C(CCl)CN2C(=O)/C=C/c1ccc(OCCCN2CCOCC2)cc1` (stereo unspecified), the result with HT-29 [1], with HT-29 [2], with SiHa [5] and with SiHa [6] was Active. Further, the “Ratio IC50” value in the test on HT-29 [3] and with SiHa [4] was 1 each time.
As for `Nc1cc2c(c3ccc(S(=O)(=O)NCCO)cc13)C(CCl)CN2C(=O)/C=C/c1ccc(OCCN2CCOCC2)cc1` (stereo unspecified), the result in the test with HT-29 [1], with HT-29 [2], in the test with SiHa [5] and in the test with SiHa [6] was Active. The “Ratio IC50” value in the test with HT-29 [3] and in the test with SiHa [4] was 1 throughout.
